Experiment: Protein binding in rat plasma
Format: ADME, organism-based
Settings: read-out: PPB (converted)

SMILES	fraction unbound
O=C(O)c1c(NS(=O)(=O)c2ccccc2)ccc2c1CCCC2	0.002
Cc1ccc(NS(=O)(=O)c2ccccc2)c(C(=O)O)c1	0.003

Reference: ChEMBL document CHEMBL1138052, “Discovery and optimization of anthranilic acid sulfonamides as inhibitors of methionine aminopeptidase-2: a structural basis for the reduction of albumin binding” (J Med Chem, 2006)
